Several values for one entry are separate records, joined by “and”; a condition that tells them apart may be missing. Equal entries are not always repeated.

For one assay, the target named is c-Abl kinase (Abelson murine leukemia virus, UniProt P00521). The assay can be described thus: Inhibition of c-Abl kinase activity (cell-free, Abl peptide substrate, 33P Flashplate). To be noted: IC50 for the c-Abl kinase activity. Format: biochemical.
Assay [1] has as its target T1, PDGF-receptor beta enzyme comprising the tyrosine kinase domain (Homo sapiens, UniProt P09619).
T1 construct: from amino acid 545 to 1106 of GenBank Access NO: AAA36427
The assay can be described thus: Inhibition of PDGF-receptor kinase activity (cell-free, PLC1 peptide, 33P Flashplate). Format: biochemical. The following applies: PDGF-R kinase activity; for inhibition at 10 µM: compound at 10 uM, read-out: Percent Inhibition @ 10 uM; for IC50: read-out: IC50. The gist of the method: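 The IC50 is the inhibitor level halving kinase activity relative to inhibitor-free wells, measured as 33P captured on a streptavidin-bound biotin-PLC1 peptide. The reaction ran 60 min at 30 °C in pH 8 Tris buffer with 1 mM DTT, 5 μM ATP and the 545–1106 kinase-domain enzyme.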

T1 sequence (P09619 545-1106): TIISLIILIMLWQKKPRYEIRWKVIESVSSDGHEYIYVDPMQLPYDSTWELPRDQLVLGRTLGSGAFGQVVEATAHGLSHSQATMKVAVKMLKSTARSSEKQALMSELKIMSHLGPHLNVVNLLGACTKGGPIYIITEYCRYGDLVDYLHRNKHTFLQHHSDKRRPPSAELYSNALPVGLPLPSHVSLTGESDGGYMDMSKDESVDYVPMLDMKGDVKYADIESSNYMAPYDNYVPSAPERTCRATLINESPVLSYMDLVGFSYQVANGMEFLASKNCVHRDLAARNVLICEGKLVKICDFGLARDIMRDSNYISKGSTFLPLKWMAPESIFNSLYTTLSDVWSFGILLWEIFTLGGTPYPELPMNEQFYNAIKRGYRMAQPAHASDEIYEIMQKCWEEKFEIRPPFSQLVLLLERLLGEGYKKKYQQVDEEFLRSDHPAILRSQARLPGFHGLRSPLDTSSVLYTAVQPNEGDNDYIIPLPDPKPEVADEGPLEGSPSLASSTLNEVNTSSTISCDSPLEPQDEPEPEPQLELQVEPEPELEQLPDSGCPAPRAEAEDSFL
Sequence of c-Abl kinase (P00521 115-385): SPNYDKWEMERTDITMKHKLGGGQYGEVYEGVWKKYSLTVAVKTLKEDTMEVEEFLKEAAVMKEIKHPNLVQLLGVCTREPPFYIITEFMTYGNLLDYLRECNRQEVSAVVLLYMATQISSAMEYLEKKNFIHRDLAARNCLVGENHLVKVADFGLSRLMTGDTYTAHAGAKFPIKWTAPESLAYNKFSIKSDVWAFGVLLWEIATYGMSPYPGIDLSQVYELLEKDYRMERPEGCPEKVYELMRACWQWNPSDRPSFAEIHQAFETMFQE

For `COc1cccc(Nc2[nH]nc3c2C(C)c2cc(OC)c(OC)cc2-3)c1` (stereo not drawn) [Compound 253, (6,7-Dimethoxy-4-methyl-2,4-dihydro-indeno[1,2-c]pyrazol-3-yl)-(3-methoxy-phenyl)-amine], the figures for the IC50 (at c-Abl kinase; in assay [1]) were 37.9 nM and 16.5 nM, respectively. Also, the inhibition at 10 µM in assay [1] was 94%.

`COc1cc2c(cc1OCCCN1CCOCC1)Cc1c-2n[nH]c1Nc1cccnc1` [Compound 129, [7-Methoxy-6-(3-morpholin-4-yl-propoxy)-2,4-dihydro-indeno[1,2-c]pyrazol-3-yl]-pyridin-3-yl-amine]: the IC50 on c-Abl kinase was 10800 nM and 2360 nM. For the same compound, in assay [1], the inhibition at 10 µM was 53.5% and the IC50 was 36.7 nM.

In the case of `COc1cc2c(cc1OCCCO)Cc1c-2n[nH]c1NCc1ccccc1Cl` [Compound 385, 3-[3-(2-Chloro-benzylamino)-7-methoxy-2,4-dihydro-indeno[1,2-c]pyrazol-6-yloxy]-propan-1-ol], the IC50 on c-Abl kinase worked out at 12 nM; in assay [1] it was 4.07 nM. In assay [1], the inhibition at 10 µM worked out at 98.5%.

Regarding `COc1cccc(Nc2[nH]nc3c2Cc2cc(OCCCN4CCCC4)c(OC)cc2-3)c1` [Compound 156, (3-Methoxy-phenyl)-[7-methoxy-6-(3-pyrrolidin-1-yl-propoxy)-2,4-dihydro-indeno[1,2-c]pyrazol-3-yl]-amine], the IC50 on c-Abl kinase was determined as 89 nM. In assay [1], the inhibition at 10 µM was 87.5% and the 50% inhibitory concentration (IC50) turned out to be 1 nM.

In the case of `CCOc1cccc(Nc2[nH]nc3c2Cc2cc(OCCCO)c(OC)cc2-3)c1` [Compound 376, 3-[3-(3-Ethoxy-phenylamino)-7-methoxy-2,4-dihydro-indeno[1,2-c]pyrazol-6-yloxy]-propan-1-ol], at c-Abl kinase, the IC50 came to 60 nM. For the same compound, in assay [1], the inhibition at 10 µM came out at 100% and the IC50 was 9.1 nM.

Turning to `CCC1c2cc(OC)c(OC)cc2-c2n[nH]c(Nc3cccc(Cl)c3)c21` (stereo not drawn) [Compound 419, (3-Chloro-phenyl)-(4-ethyl-6,7-dimethoxy-2,4-dihydro-indeno[1,2-c]pyrazol-3-yl)-amine], the IC50 at c-Abl kinase worked out at 292 nM. Also, in assay [1], the inhibition at 10 µM came out at 100% and the concentration for half-maximal inhibition (IC50) was found to be 62.1 nM.

As to `CN(C)CCCOc1cccc2c1Cc1c-2n[nH]c1Nc1cccc(F)c1` [Compound 90, [5-(3-Dimethylamino-propoxy)-2,4-dihydro-indeno[1,2-c]pyrazol-3-yl]-(3-fluoro-phenyl)-amine], at c-Abl kinase, the IC50 was 10300 nM. Besides, in assay [1], the inhibition at 10 µM worked out at 97% and the IC50 stood at 8.7 nM.

For the compound `Cc1ccc2c(c1)-c1n[nH]c(Nc3cc(F)ccc3F)c1C2` [Compound 185, (2,5-Difluoro-phenyl)-(7-methyl-2,4-dihydro-indeno[1,2-c]pyrazol-3-yl)-amine], the IC50 at c-Abl kinase worked out at 666 nM. Also, in assay [1], the inhibition at 10 µM was 84% and the IC50 was 50 nM.

On to `CCOc1cc2c(cc1OCCCO)Cc1c-2n[nH]c1Nc1cccc(OC)c1` [Compound 384, 3-[7-Ethoxy-3-(3-methoxy-phenylamino)-2,4-dihydro-indeno[1,2-c]pyrazol-6-yloxy]-propan-1-ol], for which the IC50 at c-Abl kinase turned out to be 4 nM. Besides, in assay [1], the inhibition at 10 µM is 100% and the IC50 came out at 5.61 nM.

Take `COc1cc2c(cc1OC)-c1n[nH]c(Nc3ccccc3)c1C2` [Compound 2, (6,7-Dimethoxy-2,4-dihydro-indeno[1,2-c]pyrazol-3-yl)-phenyl-amine]: the IC50 on c-Abl kinase was determined as 11 nM. Further, in assay [1], the inhibition at 10 µM came to 91% and the IC50 is 6 nM.

`COc1cc2c(cc1OC)-c1n[nH]c(Nc3cccc(Br)c3)c1C2` [Compound 44, (3-Bromo-phenyl)-(6,7-dimethoxy-2,4-dihydro-indeno[1,2-c]pyrazol-3-yl)-amine]: the figures for the IC50 (on c-Abl kinase; in assay [1]) were 7 nM and 0.54 nM, respectively. Moreover, the inhibition at 10 µM in assay [1] turned out to be 94%.

As to `COc1cc2c(cc1OCC(O)CO)Cc1c-2n[nH]c1Nc1cccnc1` (stereo not drawn) [Compound 263, 3-[7-Methoxy-3-(pyridn-3-ylamino)-2,4-dihydro-indeno[1,2-c]pyrazol-6-yloxy]-propane-1,2-diol], the IC50 on c-Abl kinase came to 512 nM. In assay [1], the inhibition at 10 µM came to 103% and the IC50 was 46 nM.

For the compound `Fc1ccc(Nc2[nH]nc3c2Cc2cc(F)ccc2-3)cc1` [Compound 201, (6-Fluoro-2,4-dihydro-indeno[1,2-c]pyrazol-3-yl)-(4-fluoro-phenyl)-amine], the IC50 at c-Abl kinase was determined as 217 nM. Moreover, in assay [1], the inhibition at 10 µM was 96% and the IC50 turned out to be 9 nM.

As to `COc1cc2c(cc1OCC(O)CO)Cc1c-2n[nH]c1Nc1ccc(F)c(Cl)c1` (stereo not drawn) [Compound 261, 3-[3-(3-Chloro-4-fluoro-phenylamino)-7-methoxy-2,4-dihydro-indeno[1,2-c]pyrazol-6-yloxy]-propane-1,2-diol], the values for the IC50 (on c-Abl kinase; in assay [1]) were 64 nM and 10 nM, respectively. For the same compound, the inhibition at 10 µM in assay [1] was determined as 71%.

Turning to `OCC(O)COc1cccc2c1Cc1c-2n[nH]c1Nc1cccc(F)c1` (stereo not drawn) [Compound 469, 3-[3-(3-Fluoro-phenylamino)-2,4-dihydro-indeno[1,2-c]pyrazol-5-yloxy]-propane-1,2-diol], the IC50 is 27 nM at c-Abl kinase and 160 nM in assay [1]. The inhibition at 10 µM in assay [1] was 96%.

On to `COc1cc2c(cc1O)Cc1c-2n[nH]c1Nc1cccc(F)c1` [Compound 363, 3-(3-Fluoro-phenylamino)-7-methoxy-2,4-dihydro-indeno[1,2-c]pyrazol-6-ol], for which the IC50 on c-Abl kinase came to 1 nM. In assay [1], the inhibition at 10 µM is 76.5% and the IC50 came out at 5.47 nM.

Consider `COc1cc2c(cc1OCC(O)CO)Cc1c-2n[nH]c1Nc1cccc(F)c1` (stereo not drawn) [Compound 262, 3-[3-(3-Fluoro-phenylamino)-7-methoxy-2,4-dihydro-indeno[1,2-c]pyrazol-6-yloxy]-propane-1,2-diol], for which the IC50 on c-Abl kinase is 27 nM. In addition, in assay [1], the inhibition at 10 µM amounted to 90% and the IC50 was found to be 1 nM.

Regarding `COc1cc2c(cc1OCCCN1CCOCC1)Cc1c-2n[nH]c1Nc1cccc(F)c1` [Compound 134, (3-Fluoro-phenyl)-[7-methoxy-6-(3-morpholin-4-yl-propoxy)-2,4-dihydro-indeno[1,2-c]pyrazol-3-yl]-amine], the IC50 on c-Abl kinase turned out to be 1160 nM; in assay [1], 10.1 nM. The inhibition at 10 µM in assay [1] was 96%.

With `COCCCOc1cc2c(cc1OCCCOC)-c1n[nH]c(Nc3cccnc3)c1C2` [Compound 286, [6,7-Bis-(3-methoxy-propoxy)-2,4-dihydro-indeno[1,2-c]pyrazol-3-yl]-pyridin-3-yl-amine], the IC50 at c-Abl kinase came to 2950 nM. In assay [1], the inhibition at 10 µM was 95.5% and the IC50 was 16.2 nM.

Take `COc1cc2c(cc1OC)-c1n[nH]c(Nc3cccc(O)c3)c1C2` [Compound 38, 3-(6,7-Dimethoxy-2,4-dihydro-indeno[1,2-c]pyrazol-3-ylamino)-phenol]: at c-Abl kinase, the IC50 was 2 nM. Further, in assay [1], the inhibition at 10 µM amounted to 74% and the IC50 was determined as 31 nM.

On to `COc1cc2c(cc1OC)-c1c(c(Nc3cccc(F)c3)nn1C(=O)CCC(=O)O)C2` [Compound 466, 4-[3-(3-Fluoro-phenylamino)-6,7-dimethoxy-4H-indeno[1,2-c]pyrazol-1-yl]-4-oxo-butyric acid], for which the IC50 on c-Abl kinase was 191 nM. In assay [1], the inhibition at 10 µM was determined as 96% and the IC50 was 31.1 nM.

As to `COc1cccc(Nc2[nH]nc3c2Cc2cc(F)c(OC)cc2-3)c1` [Compound 360, (6-Fluoro-7-methoxy-2,4-dihydro-indeno[1,2-c]pyrazol-3-yl)-(3-methoxy-phenyl)-amine], the IC50 on c-Abl kinase is 77 nM. Besides, in assay [1], the inhibition at 10 µM is 98% and the 50% inhibitory concentration (IC50) is 7.5 nM.

On to `COc1cc2c(cc1OCC(O)CN1CCCC1)Cc1c-2n[nH]c1NCc1ccccc1Cl` (stereo not drawn) [Compound 396, 1-[3-(2-Chloro-benzylamino)-7-methoxy-2,4-dihydro-indeno[1,2-c]pyrazol-6-yloxy]-3-pyrrolidin-1-yl-propan-2-ol], for which the IC50 worked out at 2 nM at c-Abl kinase and 5.13 nM in assay [1]. Further, the inhibition at 10 µM in assay [1] amounted to 99.5%.

Take `COc1cc(Nc2[nH]nc3c2Cc2cc(F)ccc2-3)cc(OC)c1` [Compound 204, (3,5-Dimethoxy-phenyl)-(6-fluoro-2,4-dihydro-indeno[1,2-c]pyrazol-3-yl)-amine]: the IC50 at c-Abl kinase stood at 165 nM. Also, in assay [1], the inhibition at 10 µM amounted to 90% and the IC50 was determined as 38 nM.

For the compound `COc1cc(Nc2[nH]nc3c2Cc2cc(OC)c(OC)cc2-3)cc(OC)c1` [Compound 41, (6,7-Dimethoxy-2,4-dihydro-indeno[1,2-c]pyrazol-3-yl)-(3,5-dimethoxy-phenyl)-amine], the IC50 at c-Abl kinase is 78 nM; in assay [1] it was 33.6 nM. Also, the inhibition at 10 µM in assay [1] was found to be 83%.

Regarding `CCOc1cc2c(cc1OCCCO)-c1n[nH]c(Nc3cccnc3)c1C2` [Compound 371, 3-[6-Ethoxy-3-(pyridin-3-ylamino)-2,4-dihydro-indeno[1,2-c]pyrazol-7-yloxy]-propan-1-ol], the IC50 on c-Abl kinase amounted to 905 nM; in assay [1], 47.6 nM. The inhibition at 10 µM in assay [1] was determined as 100%.

Turning to `CCOc1cc2c(cc1OCCCO)Cc1c-2n[nH]c1Nc1cccnc1` [Compound 383, 3-[7-Ethoxy-3-(pyridin-3-ylamino)-2,4-dihydro-indeno[1,2-c]pyrazol-6-yloxy]-propan-1-ol], the IC50 on c-Abl kinase came out at 183 nM; in assay [1] it was 25.3 nM. Moreover, in assay [1], the inhibition at 10 µM was determined as 93%.

As for `CCOC(=O)CC(=O)n1nc(Nc2cccc(F)c2)c2c1-c1cc(OC)c(OC)cc1C2` [Compound 459, 3-[3-(3-Fluoro-phenylamino)-6,7-dimethoxy-4H-indeno[1,2-c]pyrazol-1-yl]-3-oxo-propionic acid ethyl ester], on c-Abl kinase, the IC50 is 70 nM. In addition, in assay [1], the inhibition at 10 µM stood at 100% and the IC50 turned out to be 36.5 nM.

Usually IC50 stands for the concentration at which inhibition is half-maximal. The inhibition is the change of the read-out against control, counted positive when it falls.

The record behind these values is patent publication US7196110B2, “N-substituted tricyclic 3-aminopyrazoles as inhibitors for the treatment of cell proliferative disorders” (Janssen Phamaceutica N.V., priority 2002, dated 2007).
